Here are results for 15 molecules from PubChem BioAssay (NCI).

Among the test systems are COLO 205 colon; EKVX NSCLC; LOX IMVI melanoma; MCF7 breast; NCI-H460 lung; NCI/ADR-RES ovarian; OVCAR-4 ovarian; SNB-75 CNS; T-47D breast; TK-10 renal.
Experiment in all cases: DTP human tumour cell line panel, 48 h

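Five compound concentrations were applied to cells in 96-well plates for 48 hours; endpoints were derived by simple linear interpolation of the resulting dose-response curve. Abbreviation: GI50, concentration required for 50% inhibition of growth. At the TGI there is no net growth.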 Where only a bound is given, the exact number is not on record here.

Broadly, the TGI is the concentration at which net growth stops. In general, GI50 refers to the concentration giving 50% growth inhibition.

With `CCOC(=O)c1cn(C)c(=S)n2c1nc1ccccc12`, the TGI with COLO 205 colon, in the assay with EKVX NSCLC, in the assay with LOX IMVI melanoma, in the assay on MCF7 breast, in the assay with NCI-H460 lung and in the assay on NCI/ADR-RES ovarian was over 100 µM throughout. For the same molecule, the TGI in the assay on OVCAR-4 ovarian, in the assay on SNB-75 CNS and with T-47D breast was over 100 µM throughout.

For `O=C1C=CC(=O)c2c(O)c(N3CCN(CCOCCO)CC3)c(Cl)c(O)c21`, the GI50 in the assay with COLO 205 colon was 156 nM [middle of 4 runs]; with EKVX NSCLC, 1.9 µM [middle of 4 runs]; in the assay with NCI-H460 lung it was 1.57 µM. The figures for the TGI in the assay with EKVX NSCLC, with SNB-75 CNS and in the assay with TK-10 renal were 4.4 µM [middle of 4 runs], 3.16 µM [middle of 4 runs] and 1.56 µM [middle of 4 runs], respectively.

In the case of `COC(=O)C1=C(O)C(C(=O)OC)[C@]2(O)[C@H](C(=O)OC)[C@H]1C[C@@H](c1ccc([N+](=O)[O-])cc1)[C@H]2C(=O)OC` (stereo not given in full), the TGI is 65.2 µM in the assay with COLO 205 colon; over 100 µM with EKVX NSCLC; 32 µM in the assay with LOX IMVI melanoma; over 100 µM in the assay on NCI-H460 lung; 51.8 µM in the assay with NCI/ADR-RES ovarian; over 100 µM in the assay with OVCAR-4 ovarian. For the same molecule, the TGI in the assay on SNB-75 CNS, in the assay on T-47D breast and in the assay with TK-10 renal was over 100 µM throughout.

Take `NC(=O)CO/N=C1/C(c2c(O)[nH]c3ccccc23)=Nc2ccccc21`: the TGI in the assay with COLO 205 colon, in the assay on EKVX NSCLC, with LOX IMVI melanoma, with NCI-H460 lung, with NCI/ADR-RES ovarian and with OVCAR-4 ovarian was over 100 µM each time. The TGI in the assay on SNB-75 CNS and in the assay on TK-10 renal was over 100 µM each time.

With `Cc1cc2c(c(=O)n1C)SCC2`, the TGI in the assay on COLO 205 colon, in the assay with LOX IMVI melanoma, in the assay with NCI-H460 lung, in the assay on NCI/ADR-RES ovarian, with OVCAR-4 ovarian and with SNB-75 CNS was over 100 µM throughout. The TGI in the assay with T-47D breast and with TK-10 renal was over 100 µM throughout.

As for `CSc1nc(NC(C)C)c2c(n1)Sc1nc3ccccc3n1C2O` (stereo not given), the TGI in the assay with COLO 205 colon is 14.3 µM; in the assay with EKVX NSCLC, over 100 µM; in the assay with LOX IMVI melanoma, over 100 µM; in the assay with MCF7 breast, over 100 µM; in the assay on OVCAR-4 ovarian it was over 100 µM; in the assay with SNB-75 CNS, 23.4 µM. In addition, the TGI in the assay on T-47D breast is 22.4 µM; in the assay with TK-10 renal it was over 100 µM.

As to `Cc1cc2cc3c(cc2c(-c2ccc(N)cc2)n1)OCO3`, the TGI with COLO 205 colon is 88.5 µM; with EKVX NSCLC, over 100 µM; in the assay on MCF7 breast, 53.6 µM; in the assay on NCI-H460 lung, over 100 µM; in the assay on NCI/ADR-RES ovarian it was over 100 µM; in the assay on T-47D breast, over 100 µM. The same molecule gave a TGI in the assay on TK-10 renal of over 100 µM.

For the molecule `Cc1ccc(S(=O)(=O)N(CC(O)COc2ccccc2)c2ccc(F)cc2F)cc1` (stereo not given), the TGI came to 28.6 µM with COLO 205 colon; 35.7 µM in the assay on EKVX NSCLC; 27.3 µM with LOX IMVI melanoma; 33.7 µM in the assay on NCI-H460 lung; 33.3 µM in the assay with NCI/ADR-RES ovarian; 23.8 µM with OVCAR-4 ovarian. Also, the TGI in the assay on SNB-75 CNS was 29.4 µM; in the assay on T-47D breast, 46.4 µM; in the assay with TK-10 renal, 45.9 µM.

Turning to `Nc1ncnc2c1ncn2Cc1cccc(CCl)c1`, the TGI worked out at 37.1 µM in the assay on EKVX NSCLC; 71.7 µM in the assay on LOX IMVI melanoma; 30.3 µM in the assay with MCF7 breast; 29.9 µM with NCI-H460 lung; 50.8 µM with NCI/ADR-RES ovarian; 47.3 µM in the assay with OVCAR-4 ovarian. In addition, the figures for the TGI with SNB-75 CNS and in the assay with TK-10 renal were over 100 µM and 34.4 µM, respectively.

Take `O=C(Nc1cccc(-n2cc(-c3ccncc3)c(-c3ccc(O)c(Cl)c3)n2)c1)c1cccc(C(F)(F)F)c1`: the GI50 with COLO 205 colon is 13 µM; in the assay on LOX IMVI melanoma it was 2.35 µM; with MCF7 breast, 2.97 µM; in the assay with NCI-H460 lung, 3.42 µM; with NCI/ADR-RES ovarian it was 4.09 µM; in the assay on OVCAR-4 ovarian, 5.33 µM. Moreover, the results for the GI50 with SNB-75 CNS, with T-47D breast and in the assay on TK-10 renal were 2.07 µM, 3 µM and 7.18 µM, respectively. Moreover, the TGI is 72.9 µM in the assay with COLO 205 colon; over 100 µM in the assay with LOX IMVI melanoma; over 100 µM in the assay on MCF7 breast; over 100 µM in the assay on NCI-H460 lung; over 100 µM in the assay on NCI/ADR-RES ovarian; over 100 µM in the assay on OVCAR-4 ovarian. Besides, the TGI in the assay on SNB-75 CNS, with T-47D breast and in the assay with TK-10 renal was over 100 µM in each case.

For `Cc1csc(NC(=NCCN2CCOCC2)Nc2nc(C)cs2)n1`, the concentration for total growth inhibition (TGI) in the assay with COLO 205 colon, in the assay with EKVX NSCLC, in the assay on LOX IMVI melanoma, in the assay on MCF7 breast, with NCI-H460 lung and with NCI/ADR-RES ovarian was over 100 µM in each case. Besides, the TGI in the assay with OVCAR-4 ovarian and with SNB-75 CNS was over 100 µM each time.

As to `CC1(C2CCC3(C)OC3C2)CO1` (stereo not given), the TGI with COLO 205 colon, in the assay on EKVX NSCLC, in the assay on LOX IMVI melanoma, in the assay with NCI-H460 lung, in the assay with OVCAR-4 ovarian and with SNB-75 CNS was over 100 µM throughout. In the assay on TK-10 renal, the TGI is over 100 µM.

For `CC(C)(C)C1CC[C@H](O)[C@H]([C@H](O)CC2CC(=O)N(c3ccccc3)C(=O)C2)C1` (stereo not given in full), the TGI in the assay with EKVX NSCLC, with LOX IMVI melanoma, in the assay on MCF7 breast, in the assay with NCI-H460 lung, in the assay with NCI/ADR-RES ovarian and in the assay on OVCAR-4 ovarian was over 100 µM in each case. Moreover, the TGI in the assay with SNB-75 CNS and in the assay on TK-10 renal was over 100 µM each time.

As for `CCOP(=O)(OCC)/C(C#N)=C/c1cccn1Cc1ccccc1`, the TGI in the assay on COLO 205 colon is 44.5 µM; with EKVX NSCLC, over 100 µM; in the assay with LOX IMVI melanoma it was 53 µM; in the assay on MCF7 breast it was over 100 µM; in the assay with NCI-H460 lung, over 100 µM; in the assay with NCI/ADR-RES ovarian, over 100 µM. Also, the TGI was over 100 µM in the assay with SNB-75 CNS, 74 µM in the assay on T-47D breast and over 100 µM in the assay with TK-10 renal.

Turning to `CC(=O)O[C@H]1CC[C@@]2(C)[C@H](CC[C@@H]3[C@@H]2CC[C@]2(C)[C@@H](c4ccc(=O)oc4)C[C@H]4O[C@]342)C1`, the TGI in the assay with COLO 205 colon turned out to be 14.2 µM; in the assay with EKVX NSCLC it was 2.39 µM; with LOX IMVI melanoma it was 7.67 µM; with MCF7 breast, 22.1 µM; in the assay with NCI-H460 lung, 0.878 µM; in the assay with NCI/ADR-RES ovarian it was 3.82 µM. Also, the results for the TGI with OVCAR-4 ovarian and in the assay with SNB-75 CNS were 3.86 µM and 3.45 µM, respectively.
